{"source": "patent US20180369203A1", "about": "“METHODS OF TREATING CANCER BY ADMINISTERING A MEK INHIBITOR IN COMBINATION WITH A PROTEASOME INHIBITOR” (The Jackson Laboratory, priority 2015, published 2018)", "key": {"A2058 cells": {"system": "A2058 cells", "experiment": "Experimental melanoma metastasis, i.v. luciferase-expressing A2058 cells in NOD/SCID mice", "assay_type": "in vivo", "conditions": "n=10 per group", "experimental": "FIGS. 6A-N show combined MEK and proteasome inhibition exerts potent tumor-suppressive effects. (A) After treatments with 20 nM AZD6244, 100 nM Bortezomib, or both for 24 hr, viable cells were quantitated by CellTiter® Blue (mean±SD, n=6, ANOVA). (B and C) 1×10^6 A2058 cells were s.c. injected into NOD/SCID mice. After 7 days, mice were treated with DMSO, 5 mg/Kg AZD6244, 0.5 mg/Kg Bortezomib, or the combination via i.p. injection three times a week. Tumor volumes were measured using a caliper weekly (mean±SEM, ANOVA). Tumor growth curves were fitted to exponential growth models to derive tumor-doubling time (DT). Kaplan-Meier survival curve was plotted for each group (Log-rank test). (D) Proteins were detected by immunoblotting, 3 tumors per group. (E) Tumor lysates were used to quantitate AOs, 5 tumors per group (mean±SD, n=3, ANOVA). (F) Tumor lysates were used to seed Aβ1-42 peptides, 5 tumors per group (mean±SD, n=3, ANOVA). (G-H) Tumor sections were stained with CR, 5 tumors per group. […] Total CR fluorescence in each field was quantitated using ImageJ and normalized against total nuclei (median, n=50, ANOVA). […] Body weights were monitored weekly (mean±SD, n=10, ANOVA). […]\nA2058 cells were s.c. injected into the left flanks of 9-week-old female NOD.CB17-Prkdc/J (NOD/SCID) mice (The Jackson Laboratory). […] Tumor volumes were calculated following the formula 4/3πR^3. […]"}, "amyloid oligomers (AOs)": {"system": "amyloid oligomers (AOs)", "experiment": "Amyloid oligomer ELISA (A11) in human tumor, immortalized and primary cells", "assay_type": "cell-based", "conditions": "20 nM AZD6244, 100 nM Bortezomib, or both, 24 hr", "experimental": "FIGS. 5A-Y show MEK and proteasome inhibition provoke protein aggregation and amyloidogenesis. (A-B) WM115 cells treated with 20 nM AZD6244, 100 nM Bortezomib, or both for 24 hr were stained with Lys48-specific ubiquitin antibodies. Arrowheads mark ubiquitin-positive aggregates. Scale bar: 10 μm. Amounts of aggregates per cell were quantitated using ImageJ (median, n≥100, ANOVA). (C-F) Following transfection with polyQ79 plasmids alone or with both polyQ79 and HSF1^S326D plasmids for one day, HEK293T cells were treated with inhibitors as described in (A-B). Cells were either analyzed for aggregate size or stained with 10 μM ThT. (G) Treated tumor cell lines were stained with 10 μM ThT. Geometric means were used to calculate fold changes in ThT fluorescence intensity and the log 2(FC) values were presented as a heat map. (H) HEK293T cells were transfected with LacZ or polyQ79 plasmid. Following treatments, AOs were quantitated by ELISA using A11 antibodies (mean±SD, n=3, ANOVA). (I) Intrinsic AOs were detected in human tumor cell lines (mean±SD, n=3, ANOVA). […] Amyloids were quantitated by ELISA (mean±SD, n=3, Student's t-test). […] AF formation was monitored by ThT binding (mean±SD, n=3, ANOVA). […] Amyloids were quantitated (mean±SD, n=3, Student's t-test). […] Viable cells were quantitated by CellTiter® blue (mean±SD, n=6, Student's t-test). […] Viable cells were quantitated (mean±SD, n=6, ANOVA). Relative changes in viable cells after treatment were calculated by normalizing the values of AZD6244-treated cells against the values of DMSO-treated cells at each time point. (U)-(W) Following treatments with 20 nM AZD6244, 100 nM Bortezomib, or both for 24 hr, AOs were quantitated in primary MEFs and human cells (mean±SD, n=3, ANOVA). (X and Y) Cells were treated with 50 μM Q-VD-OPh overnight and AOs were quantitated (mean±SD, n=3, Student's t-test). […]\nTo quantitate soluble amyloid prefibrillar oligomers, 20 μg soluble cellular proteins diluted in PBS were incubated for each well in a 96-well ELISA plate at 4° C. overnight followed by blocking (5% non-fat milk in PBS-T) at RT for 1 hr. […]"}}}
{"smiles": "CC(C)C[C@H](NC(=O)[C@H](Cc1ccccc1)NC(=O)c1cnccn1)B(O)O", "note": "[Bortezomib, bortezomib]", "values": [{"measurement": "mice with luminescence detected by in vivo imaging", "setting": "A2058 cells", "result": 40, "unit": "%"}, {"measurement": "AO levels in MCF10A cells", "setting": "amyloid oligomers (AOs); immortalized human mammary epithelial cells", "result": "slight induction"}, {"measurement": "AO levels in PHMC", "setting": "amyloid oligomers (AOs); primary human mammary epithelial cells", "result": "no induction"}, {"measurement": "AO levels in MCF7 cells", "setting": "amyloid oligomers (AOs); tumorigenic mammary epithelial cells", "result": "marked AO induction"}]}
